Measured values: PubChem BioAssay (NCI)
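The compound was tested at five concentrations on cells cultured in 96-well plates, with a 48-hour exposure period. TGI denotes the concentration required for complete inhibition of growth.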

Assays:
Test in all cases: NCI-60 cell line screen, 48 h
SK-MEL-28 melanoma = system: SK-MEL-28 melanoma
A498 renal = system: A498 renal
CAKI-1 renal = system: CAKI-1 renal
OVCAR-5 ovarian = system: OVCAR-5 ovarian
U251 CNS = system: U251 CNS
OVCAR-3 ovarian = system: OVCAR-3 ovarian
BT-549 breast = system: BT-549 breast
A549 NSCLC = system: A549 NSCLC
HCT-116 colon = system: HCT-116 colon
HS 578T breast = system: HS 578T breast

SMILES	TGI (SK-MEL-28 melanoma) [µM]	TGI (A498 renal) [µM]	TGI (CAKI-1 renal) [µM]	TGI (OVCAR-5 ovarian) [µM]	TGI (U251 CNS) [µM]	TGI (OVCAR-3 ovarian) [µM]	TGI (BT-549 breast) [µM]	TGI (A549 NSCLC) [µM]	TGI (HCT-116 colon) [µM]	TGI (HS 578T breast) [µM]
CCOP1(=O)CC(C)=C(Cl)C(OC)C1 (stereo not given)	> 100	> 100	> 100	> 100	> 100	> 100	> 100	> 100	> 100	> 100
COc1cc(/C=C(\C)[N+](=O)[O-])cc(OC)c1	33.2	25	27.8	36.1	32.1	31.8	33.6	61.5	31.2	68.6
COC(=O)c1ccccc1CC1Cc2c(C)ccc(C)c2C1=O (stereo not given)	> 100	71	> 100	> 100	> 100	> 100	> 100	> 100	56	> 100
S=c1ncc(-c2cncc(-c3cnc(=S)[nH]c3)n2)c[nH]1	> 100	> 100	> 100	> 100	> 100	> 100	> 100	> 100	> 100	> 100
Cc1cccc2c(=O)c3c(O)cc(O)cc3n(C)c12	> 100	98.7	> 100	> 100	> 100	> 100	> 100	> 100	> 100	> 100
NCCCN(CCCCN(CCCN)CCCc1ccccc1)CCCc1ccccc1	2.98	32.8	4.94	24.9	4.19	3.34	10.1	9.49	3.02	4.66
NC1=Nc2cc(C(F)(F)F)ccc2Sc2nc3ccccc3n21	> 100	> 100	> 100	> 100	> 100	> 100	> 100	> 100	> 100	> 100
c1ccc(C(Oc2noc3ccccc23)c2ccccc2)cc1	> 100	> 100	> 100	> 100	> 100	> 100	96.4	> 100	> 100	> 100
CN(C(=O)Cc1ccccc1)n1cn[n+](CC(=O)OC(C)(C)C)c1	> 10	> 10	> 10	> 10	> 10	> 10	> 10	> 10	> 10	> 10
CN(CCN)[C@H](CSSC[C@@H](c1ccccc1O)N(C)CCN)c1ccccc1O	33.5	39.2	25.8	28.6	> 47.8	28.6	25	23.9	20.4	49.9
COCN1C(=O)[C@@H]2CCCN2C(=O)c2ccc(N)cc21	> 100	> 100	> 100	> 100	> 100	> 100	> 100	> 100	> 100	> 100
C=C1OC2OC(C)C(NC(=O)OCC(Cl)(Cl)Cl)C(OC(C)=O)C2O1 (stereo not given)	> 100	> 100	> 100	> 100	> 100	> 100	> 100	> 100	> 100	> 100
OCCc1ccsc1-c1sc(-c2cc(CCO)c(-c3sc(-c4cc(CCO)c(-c5sccc5CCO)s4)cc3CCO)s2)cc1CCO	3.27	3.65	2.95	2.85	2.6	2.72	2.21	2.2	2.33	7.31
CCN(CC)c1c(C(C)(C)C)c(=O)n2ccsc2c1OC(C)=O	30.8	33.6	33.1	29.7	30.8	30.8	30.3	28.2	26.5	42.8
CCOC(=O)c1ccc(N(CCOS(C)(=O)=O)CCOS(C)(=O)=O)cc1	> 100	> 100	29.1	> 100	> 100	> 100	> 100	> 100	> 100	> 100
Cc1nn2c(=O)c([N+](=O)[O-])c(/C=C/c3ccc(F)cc3)nc2s1	19.7	35.6	27.9	18	14.6	16.6	18.8	24.3	15.1	28.6
O=C1c2cc3c(cc2NC(c2ccccc2F)C1O)OCO3 (stereo not given)	> 79.4	58.1	> 77.8	> 75.9	> 68	> 62.7	> 100	> 63.1	> 35.7	48.2

SMILES	TGI (SK-MEL-28 melanoma) [µM]	TGI (A498 renal) [µM]	TGI (CAKI-1 renal) [µM]	TGI (OVCAR-5 ovarian) [µM]	TGI (U251 CNS) [µM]	TGI (OVCAR-3 ovarian) [µM]	TGI (BT-549 breast) [µM]	TGI (A549 NSCLC) [µM]	TGI (HCT-116 colon) [µM]	TGI (HS 578T breast) [µM]
CC(=O)O[C@H]1[C@@H](N2CCOCC2)C[C@H]2[C@@H]3CC=C4C[C@@H](N5CCCC5)CC[C@]4(C)[C@H]3CC[C@@]21C	> 100	> 100	> 100	> 100	> 100	> 100	> 100	> 100	> 100	> 100
COc1ccc(-c2nc3ccccc3c(=O)[nH]2)cc1	> 100	> 100	> 100	> 100	> 100	> 100	> 100	> 100	> 100	31.9
C[N+](C)(CCNc1ccc(NCC[N+](C)(C)Cc2ccc([N+](=O)[O-])cc2)c2c1C(=O)c1c(O)ccc(O)c1C2=O)Cc1ccc([N+](=O)[O-])cc1	> 50	> 50	> 50	> 50	> 50	> 50	> 50	> 50	> 50	> 50
COC(=O)c1ccccc1C1CN=NC12Cc1ccc(C)cc1C2=O (stereo not given)	> 100	> 100	> 100	> 100	> 100	> 100	> 100	> 100	> 100	> 100
COc1cc2c(c(OC)c1OC)C(=O)c1c(O)cc(C)c(OC)c1C2=O	> 100	> 100	> 100	> 100	> 100	> 100	> 100	> 100	> 100	70.1
CC1=NN(c2nc(N)nc(CO)n2)C(C)(C)C1	> 100	> 100	> 100	> 100	> 100	> 100	> 100	> 100	> 100	> 100
Cc1c(C#N)c2nnn(-c3cccc(Cl)c3)c(=O)n2c1-c1ccccc1	> 100	13	> 100	> 100	11.1	5.59	> 100	> 100	38.2	> 100
Nc1nc(Sc2ccc([N+](=O)[O-])c3nonc23)c2[nH]cnc2n1	22.3	13.8	5.74	17.3	21.7	13.8	18	25.1	3.89	62.5
Clc1ccc(-c2cn3c(nc4ccccc43)c(-c3ccccc3)n2)cc1	> 100	54	32.1	> 55.9	25.3	> 82.4	50.2	51.4	> 100	66
CNC(=O)OCc1cnc([N+](=O)[O-])n1C	> 100	> 100	> 100	> 100	> 100	> 100	> 100	> 100	> 100	> 100
O=c1cc(NNc2cccc3ccccc23)[nH]c(=O)[nH]1	33.3	35.7	28.5	31.1	28.3	27.3	30.2	33.4	31.2	68.7
NC(CCC(=O)c1ccccn1)C(=O)O (stereo not given)	> 100	> 100	> 100	> 100	> 100	> 100	> 100	> 100	> 100	> 100
CO[C@@]12C[C@H](CNC(=O)c3ccc[nH]3)O[C@@H]1NC(=O)N2	> 100	> 100	> 100	> 100	> 100	> 100	> 100	> 100	> 100	> 100
CC(=O)c1csc2c1C(=O)c1ccccc1C2=O	5.07	> 100	18.2	5.45	13.9	> 100	3.01	4.06	7.85	7.11
COC(=O)[C@@H]1c2c(oc3cc(CO)cc(O)c3c2=O)C=C[C@H]1O	18.1	20	22.4	22.8	22.5	20.7	12.4	34.1	5.98	55.8
CC(=O)OCC1OC(OCCCOP(=O)(OCCC#N)OCC2OC(n3cnc4c(N)ncnc43)C(OC(=O)c3ccccc3)C2OC(=O)c2ccccc2)C(OC(C)=O)C(OC(C)=O)C1OC(C)=O (stereo not given)	> 100	> 100	> 100	> 100	> 100	> 100	> 100	> 100	> 100	> 100
Nc1nc(Cl)c(CO)c(NCC2(CO)CCC2)n1	> 100	> 100	> 100	> 100	> 100	> 100	> 100	> 100	> 100	> 100
